In patent US12227500B2, “Substituted pyrrolo[2,3-b]pyridines for suppressing toxic endoplasmic reticulum stress” (THE TRUSTEES OF COLUMBIA UNIVERSITY IN THE CITY OF NEW YORK, priority 2018, dated 2025):
Where two headings read alike, the source gives them in different places.

Legend:
Assay in all cases: Radiolabeled ATP kinase assay, panel of 371 kinases (Table S6)
Assay type in all cases: biochemical
[1] = biological target: T1, panel of 371 human kinases (Homo sapiens, UniProt O60674); conditions: JAK2; 0.1 μM; 10 μM ATP; read-out: % Enzyme Activity (relative to DMSO controls)
T1 construct: purchased Reaction Biology Corp
Text: (§1) ; FIG. 38C). […]. Further targeted analyses, such as genetic knock-down or knock-out, may be warranted to parse the role of these additional kinases in our model of neurodegeneration.

[2] = biological target: T2, panel of 371 human kinases (Homo sapiens, UniProt Q8IVT5); conditions: KSR1; 0.1 μM; 10 μM ATP; read-out: % Enzyme Activity (relative to DMSO controls)
T2 construct: purchased Reaction Biology Corp
Text: as §1

[3] = biological target: T3, panel of 371 human kinases (Homo sapiens, UniProt Q13873); conditions: BMPR2; 0.1 μM; 10 μM ATP; read-out: % Enzyme Activity (relative to DMSO controls)
T3 construct: purchased Reaction Biology Corp
Text: as §1

[4] = biological target: T4, panel of 371 human kinases (Homo sapiens, UniProt P54760); conditions: EPHB4; 0.1 μM; 10 μM ATP; read-out: % Enzyme Activity (relative to DMSO controls)
T4 construct: purchased Reaction Biology Corp
Text: as §1

[5] = biological target: T5, panel of 371 human kinases (Homo sapiens, UniProt Q05513); conditions: PKCzeta; 0.1 μM; 10 μM ATP; read-out: % Enzyme Activity (relative to DMSO controls)
T5 construct: purchased Reaction Biology Corp
Text: as §1

[6] = biological target: T6, panel of 371 human kinases (Homo sapiens, UniProt Q04759); conditions: PKCtheta; 0.1 μM; 10 μM ATP; read-out: % Enzyme Activity (relative to DMSO controls)
T6 construct: purchased Reaction Biology Corp
Text: as §1

[7] = biological target: T7, panel of 371 human kinases (Homo sapiens, UniProt Q13464); conditions: ROCK1; 0.1 μM; 10 μM ATP; read-out: % Enzyme Activity (relative to DMSO controls)
T7 construct: purchased Reaction Biology Corp
Text: as §1

[8] = biological target: T8, panel of 371 human kinases (Homo sapiens, UniProt Q9BXA6); conditions: SSTK/TSSK6; 0.1 μM; 10 μM ATP; read-out: % Enzyme Activity (relative to DMSO controls)
T8 construct: purchased Reaction Biology Corp
Text: as §1

[9] = biological target: T9, panel of 371 human kinases (Homo sapiens, UniProt Q00526); conditions: 0.1 μM, 10 μM ATP, read-out: % Enzyme Activity (relative to DMSO controls)
T9 construct: purchased Reaction Biology Corp
Text: as §1

[10] = biological target: T10, panel of 371 human kinases (Homo sapiens, UniProt Q14680); conditions: MELK; 0.1 μM; 10 μM ATP; read-out: % Enzyme Activity (relative to DMSO controls)
T10 construct: purchased Reaction Biology Corp
Text: as §1

[11] = biological target: T11, panel of 371 human kinases (Homo sapiens, UniProt P42684); conditions: ABL2/ARG; 0.1 μM; 10 μM ATP; read-out: % Enzyme Activity (relative to DMSO controls)
T11 construct: purchased Reaction Biology Corp
Text: as §1

[12] = biological target: T12, panel of 371 human kinases (Homo sapiens, UniProt Q9P286); conditions: PAK5; 0.1 μM; 10 μM ATP; read-out: % Enzyme Activity (relative to DMSO controls)
T12 construct: purchased Reaction Biology Corp
Text: as §1

[13] = biological target: T13, panel of 371 human kinases (Homo sapiens, UniProt Q86SG6); conditions: NEK8; 0.1 μM; 10 μM ATP; read-out: % Enzyme Activity (relative to DMSO controls)
T13 construct: purchased Reaction Biology Corp
Text: as §1

[14] = biological target: T14, panel of 371 human kinases (Homo sapiens, UniProt O15111); conditions: IKKa/CHUK; 0.1 μM; 10 μM ATP; read-out: % Enzyme Activity (relative to DMSO controls)
T14 construct: purchased Reaction Biology Corp
Text: as §1

[15] = biological target: T15, panel of 371 human kinases (Homo sapiens, UniProt P35626); conditions: GRK3; 0.1 μM; 10 μM ATP; read-out: % Enzyme Activity (relative to DMSO controls)
T15 construct: purchased Reaction Biology Corp
Text: as §1

[16] = biological target: T16, panel of 371 human kinases (Homo sapiens, UniProt Q9NRH2); conditions: SNRK; 0.1 μM; 10 μM ATP; read-out: % Enzyme Activity (relative to DMSO controls)
T16 construct: purchased Reaction Biology Corp
Text: as §1

[17] = biological target: T17, panel of 371 human kinases (Homo sapiens, UniProt Q14164); conditions: IKKe/IKBKE; 0.1 μM; 10 μM ATP; read-out: % Enzyme Activity (relative to DMSO controls)
T17 construct: purchased Reaction Biology Corp
Text: as §1

[18] = biological target: T18, panel of 371 human kinases (Homo sapiens, UniProt Q9BXA7); conditions: STK22D/TSSK1; 0.1 μM; 10 μM ATP; read-out: % Enzyme Activity (relative to DMSO controls)
T18 construct: purchased Reaction Biology Corp
Text: as §1

[19] = biological target: T19, panel of 371 human kinases (Homo sapiens, UniProt O15530); conditions: PDK1/PDPK1; 0.1 μM; 10 μM ATP; read-out: % Enzyme Activity (relative to DMSO controls)
T19 construct: purchased Reaction Biology Corp
Text: as §1

[20] = biological target: T20, panel of 371 human kinases (Homo sapiens, UniProt Q04912); conditions: RON/MST1R; 0.1 μM; 10 μM ATP; read-out: % Enzyme Activity (relative to DMSO controls)
T20 construct: purchased Reaction Biology Corp
Text: as §1

[21] = biological target: T21, panel of 371 human kinases (Homo sapiens, UniProt Q16512); conditions: PKN1/PRK1; 0.1 μM; 10 μM ATP; read-out: % Enzyme Activity (relative to DMSO controls)
T21 construct: purchased Reaction Biology Corp
Text: as §1

[22] = biological target: T22, panel of 371 human kinases (Homo sapiens, UniProt Q76MJ5); conditions: ERN2/IRE2; 0.1 μM; 10 μM ATP; read-out: % Enzyme Activity (relative to DMSO controls)
T22 construct: purchased Reaction Biology Corp
Text: as §1

[23] = biological target: T23, panel of 371 human kinases (Homo sapiens, UniProt Q9HC98); conditions: NEK6; 0.1 μM; 10 μM ATP; read-out: % Enzyme Activity (relative to DMSO controls)
T23 construct: purchased Reaction Biology Corp
Text: as §1

[24] = biological target: T24, panel of 371 human kinases (Homo sapiens, UniProt Q9H2G2); conditions: SLK/STK2; 0.1 μM; 10 μM ATP; read-out: % Enzyme Activity (relative to DMSO controls)
T24 construct: purchased Reaction Biology Corp
Text: as §1

T9 sequence (Q00526 whole entry): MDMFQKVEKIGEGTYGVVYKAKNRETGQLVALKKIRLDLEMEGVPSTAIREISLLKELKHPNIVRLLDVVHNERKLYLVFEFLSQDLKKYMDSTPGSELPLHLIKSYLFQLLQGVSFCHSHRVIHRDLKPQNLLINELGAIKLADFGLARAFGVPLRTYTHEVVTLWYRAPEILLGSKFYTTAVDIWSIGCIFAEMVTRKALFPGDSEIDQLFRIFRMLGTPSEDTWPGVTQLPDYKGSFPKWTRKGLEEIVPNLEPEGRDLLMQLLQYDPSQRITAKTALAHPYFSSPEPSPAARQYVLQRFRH
T4 sequence (P54760 16-987): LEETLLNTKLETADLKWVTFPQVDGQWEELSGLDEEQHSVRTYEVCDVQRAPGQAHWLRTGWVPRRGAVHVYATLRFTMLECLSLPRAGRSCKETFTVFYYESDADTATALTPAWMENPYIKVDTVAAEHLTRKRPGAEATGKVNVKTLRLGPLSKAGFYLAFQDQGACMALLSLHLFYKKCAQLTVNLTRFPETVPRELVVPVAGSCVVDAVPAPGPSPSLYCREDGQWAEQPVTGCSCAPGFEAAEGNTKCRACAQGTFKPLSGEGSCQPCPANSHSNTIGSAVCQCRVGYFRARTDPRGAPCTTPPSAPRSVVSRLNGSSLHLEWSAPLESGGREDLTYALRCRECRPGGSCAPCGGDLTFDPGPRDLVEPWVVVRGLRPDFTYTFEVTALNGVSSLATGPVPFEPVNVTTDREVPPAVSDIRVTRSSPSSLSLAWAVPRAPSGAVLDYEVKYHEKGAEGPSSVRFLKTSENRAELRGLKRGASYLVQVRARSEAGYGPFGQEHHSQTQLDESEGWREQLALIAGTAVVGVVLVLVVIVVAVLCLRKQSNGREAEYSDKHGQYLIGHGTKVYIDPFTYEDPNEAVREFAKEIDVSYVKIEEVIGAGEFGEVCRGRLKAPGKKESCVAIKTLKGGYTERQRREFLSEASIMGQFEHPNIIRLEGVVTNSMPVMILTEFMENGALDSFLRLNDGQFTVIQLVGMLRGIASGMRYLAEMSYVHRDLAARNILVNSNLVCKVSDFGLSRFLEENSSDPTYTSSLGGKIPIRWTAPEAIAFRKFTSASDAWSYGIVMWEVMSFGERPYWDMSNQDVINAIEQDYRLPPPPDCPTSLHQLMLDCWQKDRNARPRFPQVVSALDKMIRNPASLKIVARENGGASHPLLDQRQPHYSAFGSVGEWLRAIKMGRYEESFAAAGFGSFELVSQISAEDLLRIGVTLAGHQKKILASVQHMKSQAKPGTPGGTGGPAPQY
T7 sequence (Q13464 whole entry): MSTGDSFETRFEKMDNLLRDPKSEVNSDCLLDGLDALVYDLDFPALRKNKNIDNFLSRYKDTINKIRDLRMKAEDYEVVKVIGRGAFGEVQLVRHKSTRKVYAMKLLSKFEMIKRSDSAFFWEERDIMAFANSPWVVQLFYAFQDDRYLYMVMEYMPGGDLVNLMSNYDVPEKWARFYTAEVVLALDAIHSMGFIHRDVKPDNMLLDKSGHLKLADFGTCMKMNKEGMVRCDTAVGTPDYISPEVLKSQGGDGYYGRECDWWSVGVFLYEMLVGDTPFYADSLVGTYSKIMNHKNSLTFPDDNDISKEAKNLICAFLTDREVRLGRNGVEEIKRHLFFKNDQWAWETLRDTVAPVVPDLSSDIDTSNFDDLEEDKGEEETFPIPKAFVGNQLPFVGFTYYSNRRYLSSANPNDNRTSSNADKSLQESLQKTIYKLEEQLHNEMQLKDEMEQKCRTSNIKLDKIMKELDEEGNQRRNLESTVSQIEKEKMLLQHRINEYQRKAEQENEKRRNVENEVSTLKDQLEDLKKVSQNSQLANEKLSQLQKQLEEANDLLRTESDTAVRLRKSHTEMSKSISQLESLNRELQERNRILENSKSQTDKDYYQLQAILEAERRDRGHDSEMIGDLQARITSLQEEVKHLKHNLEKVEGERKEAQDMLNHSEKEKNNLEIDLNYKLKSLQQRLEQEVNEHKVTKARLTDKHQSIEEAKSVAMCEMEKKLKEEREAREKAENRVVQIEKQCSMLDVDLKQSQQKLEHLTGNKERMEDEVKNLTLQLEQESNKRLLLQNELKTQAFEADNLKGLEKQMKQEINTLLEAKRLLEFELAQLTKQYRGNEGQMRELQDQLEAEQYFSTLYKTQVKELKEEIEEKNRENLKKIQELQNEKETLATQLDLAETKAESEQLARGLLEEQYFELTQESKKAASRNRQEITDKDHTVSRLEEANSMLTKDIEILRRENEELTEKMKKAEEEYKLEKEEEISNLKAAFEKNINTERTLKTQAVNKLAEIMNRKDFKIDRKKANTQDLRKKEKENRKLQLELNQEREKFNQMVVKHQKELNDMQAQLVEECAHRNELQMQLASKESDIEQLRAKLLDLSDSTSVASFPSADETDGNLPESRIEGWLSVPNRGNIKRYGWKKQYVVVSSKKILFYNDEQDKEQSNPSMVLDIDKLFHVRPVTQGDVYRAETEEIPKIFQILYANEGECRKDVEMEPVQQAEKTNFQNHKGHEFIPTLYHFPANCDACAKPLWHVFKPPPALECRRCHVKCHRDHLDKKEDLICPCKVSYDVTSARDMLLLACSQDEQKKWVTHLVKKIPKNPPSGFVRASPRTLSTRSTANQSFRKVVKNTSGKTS
T1 sequence (O60674 whole entry): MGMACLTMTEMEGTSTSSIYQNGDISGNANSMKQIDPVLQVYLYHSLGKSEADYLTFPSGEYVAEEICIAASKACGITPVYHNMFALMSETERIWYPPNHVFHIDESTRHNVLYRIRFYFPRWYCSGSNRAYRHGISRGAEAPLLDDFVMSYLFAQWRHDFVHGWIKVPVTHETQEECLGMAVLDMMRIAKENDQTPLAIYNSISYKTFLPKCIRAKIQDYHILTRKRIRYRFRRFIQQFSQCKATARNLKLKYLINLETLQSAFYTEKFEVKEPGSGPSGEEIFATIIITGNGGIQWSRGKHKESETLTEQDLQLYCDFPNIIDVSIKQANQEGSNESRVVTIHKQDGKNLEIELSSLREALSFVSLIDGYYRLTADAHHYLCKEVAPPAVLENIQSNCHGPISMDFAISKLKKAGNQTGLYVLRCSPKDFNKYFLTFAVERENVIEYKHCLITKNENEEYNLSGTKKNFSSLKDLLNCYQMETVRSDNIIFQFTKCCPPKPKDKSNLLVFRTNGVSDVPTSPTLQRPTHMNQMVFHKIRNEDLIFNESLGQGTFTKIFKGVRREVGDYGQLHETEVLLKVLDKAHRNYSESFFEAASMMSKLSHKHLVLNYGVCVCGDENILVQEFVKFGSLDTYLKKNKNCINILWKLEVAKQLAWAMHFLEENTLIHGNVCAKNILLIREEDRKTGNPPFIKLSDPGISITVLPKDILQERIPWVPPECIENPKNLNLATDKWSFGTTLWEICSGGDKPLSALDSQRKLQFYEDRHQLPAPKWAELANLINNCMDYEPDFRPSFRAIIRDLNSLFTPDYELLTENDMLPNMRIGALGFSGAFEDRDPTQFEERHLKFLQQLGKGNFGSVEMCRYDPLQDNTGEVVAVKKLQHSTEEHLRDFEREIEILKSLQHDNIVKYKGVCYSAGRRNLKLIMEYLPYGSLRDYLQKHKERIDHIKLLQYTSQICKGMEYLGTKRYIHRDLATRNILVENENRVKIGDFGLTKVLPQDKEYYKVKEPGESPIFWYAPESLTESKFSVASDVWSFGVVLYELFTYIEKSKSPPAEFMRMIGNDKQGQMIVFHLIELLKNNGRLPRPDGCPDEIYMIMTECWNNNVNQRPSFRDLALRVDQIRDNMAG
T15 sequence (P35626 whole entry): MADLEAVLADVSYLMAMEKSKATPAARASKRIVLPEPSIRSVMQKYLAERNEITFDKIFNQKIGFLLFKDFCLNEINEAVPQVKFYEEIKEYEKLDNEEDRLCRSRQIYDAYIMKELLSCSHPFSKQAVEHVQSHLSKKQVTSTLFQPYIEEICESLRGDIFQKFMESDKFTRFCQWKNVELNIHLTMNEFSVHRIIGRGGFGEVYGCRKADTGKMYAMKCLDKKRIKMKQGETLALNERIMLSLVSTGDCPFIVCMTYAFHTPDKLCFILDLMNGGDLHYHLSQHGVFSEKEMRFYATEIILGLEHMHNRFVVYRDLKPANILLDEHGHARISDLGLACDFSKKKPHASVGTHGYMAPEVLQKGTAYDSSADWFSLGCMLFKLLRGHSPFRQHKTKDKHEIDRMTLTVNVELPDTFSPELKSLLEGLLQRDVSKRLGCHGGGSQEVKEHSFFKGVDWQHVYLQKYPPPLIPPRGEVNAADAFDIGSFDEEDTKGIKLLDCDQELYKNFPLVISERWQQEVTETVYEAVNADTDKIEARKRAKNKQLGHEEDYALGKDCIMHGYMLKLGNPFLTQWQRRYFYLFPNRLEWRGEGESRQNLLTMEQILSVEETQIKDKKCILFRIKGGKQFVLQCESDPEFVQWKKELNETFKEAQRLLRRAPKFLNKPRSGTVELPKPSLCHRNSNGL
T8 sequence (Q9BXA6 whole entry): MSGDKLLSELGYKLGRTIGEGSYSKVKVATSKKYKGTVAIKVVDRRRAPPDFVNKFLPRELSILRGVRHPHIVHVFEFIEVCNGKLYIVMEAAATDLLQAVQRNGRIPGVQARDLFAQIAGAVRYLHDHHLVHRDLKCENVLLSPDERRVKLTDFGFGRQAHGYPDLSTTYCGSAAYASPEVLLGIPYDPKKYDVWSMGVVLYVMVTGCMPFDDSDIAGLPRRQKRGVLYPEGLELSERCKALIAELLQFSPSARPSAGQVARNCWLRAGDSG
T23 sequence (Q9HC98 whole entry): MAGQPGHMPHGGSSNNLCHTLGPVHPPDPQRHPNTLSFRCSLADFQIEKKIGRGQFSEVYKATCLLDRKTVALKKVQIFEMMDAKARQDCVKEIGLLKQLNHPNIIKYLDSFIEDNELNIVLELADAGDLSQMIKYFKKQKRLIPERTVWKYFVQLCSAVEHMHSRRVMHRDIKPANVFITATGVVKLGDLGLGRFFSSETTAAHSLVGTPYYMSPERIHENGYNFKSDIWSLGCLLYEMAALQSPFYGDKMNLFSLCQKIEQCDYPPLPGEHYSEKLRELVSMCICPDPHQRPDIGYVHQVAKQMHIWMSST

| Structure (SMILES) | remaining activity at 0.1 µM [1] [%] | remaining activity at 0.1 µM [2] [%] | remaining activity at 0.1 µM [3] [%] | remaining activity at 0.1 µM [4] [%] | remaining activity at 0.1 µM [5] [%] | remaining activity at 0.1 µM [6] [%] | remaining activity at 0.1 µM [7] [%] | remaining activity at 0.1 µM [8] [%] | remaining activity at 0.1 µM ([9]; CDK3/cyclin E2) [%] | remaining activity at 0.1 µM ([9]; CDK3/cyclin E) [%] | remaining activity at 0.1 µM [10] [%] | remaining activity at 0.1 µM [11] [%] | remaining activity at 0.1 µM [12] [%] | remaining activity at 0.1 µM [13] [%] | remaining activity at 0.1 µM [14] [%] | remaining activity at 0.1 µM [15] [%] | remaining activity at 0.1 µM [16] [%] | remaining activity at 0.1 µM [17] [%] | remaining activity at 0.1 µM [18] [%] | remaining activity at 0.1 µM [19] [%] | further results |
| --- | --- | --- | --- | --- | --- | --- | --- | --- | --- | --- | --- | --- | --- | --- | --- | --- | --- | --- | --- | --- | --- |
| OCCN1CCN(Cc2ccc(-c3cnc4[nH]cc(-c5cccc(Cl)c5)c4c3)cc2)CC1 [Compound 12k, 2-(4-(4-(3-(3-Chlorophenyl)-1H-pyrrolo[2,3-b]pyridin-5-yl)benzyl)piperazin-1-yl)ethan-1-ol] | 93 | 97.3 | 90.3 | 97.5 | 97.7 | 94.6 | 79.2 | 102 | 90.2 | 97 | 71 | 75.1 | 99 | 97.9 | 101 | 104 | 43.1 | 63.8 | 75.2 | 92.7 | remaining activity at 0.1 µM [20]: 94.1%; remaining activity at 0.1 µM [21]: 95%; remaining activity at 0.1 µM [22]: 64.3%; remaining activity at 0.1 µM [23]: 95.1%; remaining activity at 0.1 µM [24]: 83.5% |
| CN1CCN(Cc2ccc(-c3cnc4[nH]cc(-c5ccc6[nH]ccc6c5)c4c3)cc2)CC1 [Compound 1, 3-(1H-Indol-5-yl)-5-(4-((4-methylpiperazin-1-yl)methyl)phenyl)-1H-pyrrolo[2,3-b]pyridine, reference compound] | 90.2 | 98 | 90.5 | 91.6 | 93.6 | 90.8 | 94.7 | 121 | 92.6 | 92.9 | 48.1 | 76.8 | 113 | 99.1 | 96.8 | 106 | 102 | 82.5 | 87.2 | 110 | remaining activity at 0.1 µM [20]: 91.6%; remaining activity at 0.1 µM [21]: 94%; remaining activity at 0.1 µM [22]: 92.3%; remaining activity at 0.1 µM [23]: 92.7%; remaining activity at 0.1 µM [24]: 93.2% |
